In patent publication US20090326196A1 (priority 2006, published 2009):
Square brackets hold non-standard residues; d marks the D form. Peptide text beside a SMILES is read from it. Leu(5,5,5,5',5',5'-F6) = N[C@@H](CC(C(F)(F)F)C(F)(F)F)C(=O)O

Tests used:
[1] = tested on: T1, trypsin; assay: in vitro; format: in vitro ADME, bovine; settings: bovine, isolated enzyme trypsin, pH 7.4
T1 construct: trypsin (from bovine pancreas, EC 3.4.21.4); from tissue; host or cells: bovine pancreas
Description: The proteolytic stability of peptides towards trypsin (from bovine pancreas, EC 3.4.21.4) was determined by an analytical RP-HPLC assay. […] The enzyme concentration (in 1 mM HCl) was determined by absorbance at 280 nm. […] The amount of enzyme was optimized so that kinetics of proteolytic reactions could be assayed by RP-HPLC (detection at 230 nm). The peptides were incubated with trypsin at 37° C. over a period of 3 h. Aliquots (10 μL) were taken at different reaction times, diluted with 0.2% TFA (440 μL) and stored at −80° C. […] The remaining full-length peptide concentration was normalized with respect to the initial concentration.
where A is the normalized concentration of peptides; k is the pseudo first order rate constant; t is the reaction time in mins; and [A]0 is the initial concentration of peptides. Each fragment cleaved from the full-length peptides was identified by ESI-MS so that cleavage patterns could be established and compared.

[2] = tested on: human red blood cells (hRBC); format: cell-based
Description: The selectivity with which the peptides are able to lyse bacterial cells compared to mammalian cells was interrogated by a hemolysis assay against human red blood cells (hRBC). […] Our results are consistent with this trend.
Fresh human red blood cells (hRBCs) were centrifuged at 3,500 rpm and washed with PBS buffer until the supernatant was clear. The hRBCs were then resuspended and diluted to a final concentration of 1% (v/v) in PBS and stored at 4° C. […] An aliquot (50 μL) of supernatant was transferred to a new 96-well plate containing 50 μL H2O in each well. The absorbance at 415 nm was measured using a plate reader. Wells containing melittin at 100-400 μg/mL served as positive controls, and wells containing only buffer and hRBCs served as negative controls. The percentage hemolysis was calculated using the equation:
where complete hemolysis is defined as the average absorbance of all wells containing 100-400 μg/[…] melittin.

CC[C@H](C)[C@H](NC(=O)CN)C(=O)NCC(=O)N[C@@H](CCCCN)C(=O)N[C@@H](Cc1ccccc1)C(=O)N[C@@H](CC(C(F)(F)F)C(F)(F)F)C(=O)N[C@@H](Cc1c[nH]cn1)C(=O)N[C@@H](C)C(=O)N[C@@H](CC(C(F)(F)F)C(F)(F)F)C(=O)N[C@@H](CCCCN)C(=O)N[C@@H](CCCCN)C(=O)N[C@@H](Cc1ccccc1)C(=O)N[C@@H](CC(C(F)(F)F)C(F)(F)F)C(=O)N[C@@H](CCCCN)C(=O)N[C@@H](C)C(=O)N[C@@H](Cc1ccccc1)C(=O)N[C@@H](CC(C(F)(F)F)C(F)(F)F)C(=O)N[C@@H](C)C(=O)N[C@@H](CCC(=O)O)C(=O)N[C@@H](CC(C(F)(F)F)C(F)(F)F)C(=O)N[C@@H](CCSC)C(=O)N[C@@H](CC(N)=O)C(=O)N[C@@H](CO)C(N)=O [Peptide M2F5] (H-GIGKF[Leu(5,5,5,5',5',5'-F6)]HA[Leu(5,5,5,5',5',5'-F6)]KKF[Leu(5,5,5,5',5',5'-F6)]KAF[Leu(5,5,5,5',5',5'-F6)]AE[Leu(5,5,5,5',5',5'-F6)]MNS-NH2) was tested. Which remaining at 3 h, 0.25 mM [1] did it give?
The remaining at 3 h, 0.25 mM was over 78%.

What about the “hemolytic activity relative to parent peptide, in words” value [2] of the same molecule?
Its value is “significantly more hemolytic”.
